This is an account of results in article PMC7238120, “Strong and Selective Inhibitory Effects of the Biflavonoid Selamariscina A against CYP2C8 and CYP2C9 Enzyme Activities in Human Liver Microsomes” (Pharmaceutics, 2020).

Read-outs that look alike come from different tables or passages of the source.

Series [1] addresses T1, UGT1A3 (Homo sapiens, UniProt P35503).
T1 construct: tissue XenoTech XTreme 200; host or cells: pooled human liver microsomes
Kind of series: Inhibition of UGT1A3 (chenodeoxycholic acid glucuronidation) in human liver microsomes. As to conditions: substrate chenodeoxycholic acid; HLMs. Type of series: in vitro ADME. As for the experimental part: (§1) The ability of selamariscina A to inhibit the metabolism of six UGT enzyme probe substrates was evaluated using previously developed methods with minor modifications. The microsomal incubation was performed by dividing the non-interactive substrate cocktail sets (set A included SN-38 for UGT1A1, CDCA for UGT1A3 and TFP for UGT1A4 while set B included N-SER for UGT1A6, MPA for UGT1A9 and NX for UGT2B7) (Table 2). In brief, HLMs (0.25 mg/mL) were activated by incubation in the presence of alamethicin (25 µg/mL) for 15 min on ice. After the addition of UGT probe substrates and inhibitor (0, 0.5, 2, 5, 20 and 50 μM), the incubation mixtures were pre-incubated at 37 °C for 5 min. […] After centrifugation at 18,000 g (5 min, 4 °C), aliquots of supernatants were analyzed by LC–MS/MS. […]
(§2) All metabolites and the IS were separated on a Kinetex XB-C18 column (100 × 2.10 mm, 2.6 μm, 100 Å; Phenomenex, Torrance, CA, USA) and analyzed using a Shimadzu LCMS 8060 triple-quadrupole mass spectrometer coupled with a Nexera X2 ultra high-performance liquid chromatography system (Shimadzu, Kyoto, Japan) equipped with an electrospray ionization interface. […] Quantitation was conducted in selected reaction monitoring (SRM) modes with the precursor-to-product ion transition for each metabolite (Table 1 and Table 2).
(§3) We analyzed the data with Shimadzu LabSolution LC–MS software. […]
On the technique in general: Liver microsomes are vesicles of endoplasmic reticulum, rich in cytochrome P450 enzymes.

Series [2] deals with T2, UGT1A4 (Homo sapiens, UniProt P22310).
T2 construct: tissue XenoTech XTreme 200; host or cells: pooled human liver microsomes
Kind of series: Inhibition of UGT1A4 (trifluoperazine glucuronidation) in human liver microsomes. Type of series: in vitro ADME. As to conditions: substrate trifluoperazine; HLMs; average ± standard error. As for the experimental part:
as §1, §2, §3

The target in series [3] is T3, UGT2B7 (Homo sapiens, UniProt P16662).
T3 construct: tissue XenoTech XTreme 200; host or cells: pooled human liver microsomes
In words: Inhibition of UGT2B7 (naloxone glucuronidation) in human liver microsomes. Type of series: in vitro ADME. Conditions: substrate naloxone; HLMs. As for the experimental part: as §1, §2, §3

For series [4] the following is noted: cited from earlier work.
For series [5], the target named is T4, CYP2C8 (Homo sapiens, UniProt P10632).
T4 sequence (P10632 1-490): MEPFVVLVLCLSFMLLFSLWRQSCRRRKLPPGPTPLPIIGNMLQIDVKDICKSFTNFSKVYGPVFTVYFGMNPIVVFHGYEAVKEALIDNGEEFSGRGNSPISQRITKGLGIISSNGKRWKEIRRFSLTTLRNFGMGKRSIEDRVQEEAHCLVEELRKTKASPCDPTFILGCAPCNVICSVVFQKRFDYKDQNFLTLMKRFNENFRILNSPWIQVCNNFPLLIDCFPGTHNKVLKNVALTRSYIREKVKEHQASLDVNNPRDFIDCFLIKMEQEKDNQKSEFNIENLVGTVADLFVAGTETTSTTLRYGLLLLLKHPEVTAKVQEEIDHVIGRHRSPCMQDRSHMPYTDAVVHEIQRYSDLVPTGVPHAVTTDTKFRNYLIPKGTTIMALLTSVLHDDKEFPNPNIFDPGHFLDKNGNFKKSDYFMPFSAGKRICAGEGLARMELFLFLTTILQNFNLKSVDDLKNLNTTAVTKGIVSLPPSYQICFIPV
Conditions: read-out: IC50, CYP2C8, known inhibitor; cited from earlier work.

T3 sequence (P16662 24-529): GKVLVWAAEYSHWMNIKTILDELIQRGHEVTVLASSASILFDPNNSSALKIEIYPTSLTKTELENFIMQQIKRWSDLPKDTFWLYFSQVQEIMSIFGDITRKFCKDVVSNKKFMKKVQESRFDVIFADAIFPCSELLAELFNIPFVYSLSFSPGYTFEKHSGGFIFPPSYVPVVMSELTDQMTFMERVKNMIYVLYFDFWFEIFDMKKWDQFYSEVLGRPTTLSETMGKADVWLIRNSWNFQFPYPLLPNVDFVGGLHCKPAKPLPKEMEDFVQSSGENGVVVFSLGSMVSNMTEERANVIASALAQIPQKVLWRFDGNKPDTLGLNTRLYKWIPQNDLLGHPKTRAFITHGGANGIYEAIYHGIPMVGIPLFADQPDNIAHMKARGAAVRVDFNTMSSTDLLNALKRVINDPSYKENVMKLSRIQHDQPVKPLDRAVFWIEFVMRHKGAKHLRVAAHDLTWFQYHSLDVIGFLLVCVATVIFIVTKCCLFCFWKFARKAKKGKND
T1 sequence (P35503 29-534): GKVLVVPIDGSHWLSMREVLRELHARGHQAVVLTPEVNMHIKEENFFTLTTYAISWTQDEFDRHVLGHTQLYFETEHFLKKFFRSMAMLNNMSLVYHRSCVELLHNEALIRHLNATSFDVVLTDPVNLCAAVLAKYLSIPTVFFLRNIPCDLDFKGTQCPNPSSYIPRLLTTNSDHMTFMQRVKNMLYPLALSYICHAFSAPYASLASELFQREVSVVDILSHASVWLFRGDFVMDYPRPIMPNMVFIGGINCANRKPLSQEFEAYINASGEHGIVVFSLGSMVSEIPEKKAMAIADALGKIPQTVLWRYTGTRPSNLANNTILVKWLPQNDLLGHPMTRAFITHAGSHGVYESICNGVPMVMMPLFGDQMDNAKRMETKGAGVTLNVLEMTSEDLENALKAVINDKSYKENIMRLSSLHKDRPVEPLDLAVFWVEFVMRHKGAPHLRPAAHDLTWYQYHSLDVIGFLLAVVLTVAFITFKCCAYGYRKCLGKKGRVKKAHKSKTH
T2 sequence (P22310 29-534): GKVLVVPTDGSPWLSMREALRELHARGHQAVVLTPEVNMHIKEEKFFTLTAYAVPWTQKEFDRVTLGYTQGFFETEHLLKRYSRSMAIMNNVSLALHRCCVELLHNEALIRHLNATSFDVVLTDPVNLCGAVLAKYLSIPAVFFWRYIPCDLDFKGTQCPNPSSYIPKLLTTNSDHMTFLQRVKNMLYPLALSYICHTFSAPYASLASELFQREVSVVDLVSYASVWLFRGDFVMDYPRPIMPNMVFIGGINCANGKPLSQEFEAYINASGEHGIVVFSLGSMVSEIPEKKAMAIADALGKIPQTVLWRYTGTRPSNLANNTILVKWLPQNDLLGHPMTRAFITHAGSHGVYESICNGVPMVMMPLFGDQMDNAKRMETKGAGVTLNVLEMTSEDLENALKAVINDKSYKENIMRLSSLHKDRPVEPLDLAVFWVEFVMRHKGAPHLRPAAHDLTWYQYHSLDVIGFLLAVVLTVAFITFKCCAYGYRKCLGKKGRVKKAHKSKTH

By IC50 is commonly meant the concentration needed to halve the response being measured. On to `O=C1CC(c2cc(-c3c(O)ccc4c(=O)cc(-c5ccc(O)cc5)oc34)c(O)cc2O)Oc2cc(O)cc(O)c21` (centres unmarked) [selamariscina A], for which the half-inhibitory concentration (IC50) is above 50 µM in series [1], 7.7 ± 1.9 µM in series [2] and above 50 µM in series [3].

The Cmax is the maximum level reached in the sampled fluid or tissue. Regarding `O=c1cc(-c2ccc(O)c(-c3c(O)cc(O)c4c(=O)cc(-c5ccc(O)cc5)oc34)c2)oc2cc(O)cc(O)c12` [amentoflavone], the Cmax in series [4] (liposome-based Selaginella doderleinii Hieron extracts 200 mg/kg, read-out: Cmax after liposome-based extract) was 220 nM. In series [4] (liposome-based extracts 200 mg/kg versus control), the “Cmax, times higher than control” value was 5.4 times. The “Maximum concentration in rat blood” value is 0.041 µM in series [4] (single oral dose of Selaginella doderleinii Hieron extracts 200 mg/kg) and 0.063 µM in series [4] (single oral dose of Selaginella doderleinii Hieron extracts 600 mg/kg).

`CC(C)(O)c1ccccc1CC[C@@H](SCC1(CC(=O)O)CC1)c1cccc(/C=C/c2ccc3ccc(Cl)cc3n2)c1` [montelukast, reference compound]: the concentration for half-maximal inhibition (IC50) in series [5] is 0.02 µM.
